Experimental findings from PubChem BioAssay (NCI) are described below.

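Growth conditions: 96-well plates. Treatment: test compound, 48 hours, 5 concentrations. Analysis: linear interpolation between bracketing concentrations; unreached endpoints set to highest concentration. GI50 = concentration required for 50% inhibition of growth. Definition used: TGI = concentration required for complete inhibition of growth.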

Some test systems named below: HCT-116 colon; 786-0 renal; SK-MEL-5 melanoma; PC-3 prostate; RPMI-8226 leukemia; SF-539 CNS; SK-MEL-28 melanoma; A498 renal; U251 CNS; ACHN renal.
Common to all, as to assay: NCI-60 cell line screen, 48 h

Regarding `CCCC(CCC)C(=O)OCC1(CO)C/C(=C\c2ccc(C(F)(F)F)cc2)C(=O)O1` (stereo not given), the GI50 in the assay on HCT-116 colon was 12.6 µM; with 786-0 renal, 10.1 µM; in the assay with SK-MEL-5 melanoma, 0.948 µM; with PC-3 prostate, 12.3 µM; in the assay on RPMI-8226 leukemia, 10.7 µM; in the assay on SF-539 CNS, 11.8 µM. The GI50 in the assay on SK-MEL-28 melanoma is 15.5 µM; in the assay with A498 renal, 0.105 µM; in the assay with U251 CNS it was 7.61 µM; with ACHN renal, 10.5 µM. The TGI stood at 25.6 µM in the assay with HCT-116 colon; 22.5 µM in the assay on 786-0 renal; 19.6 µM in the assay with SK-MEL-5 melanoma; 25.4 µM with PC-3 prostate; 26.9 µM with RPMI-8226 leukemia; 24.2 µM in the assay on SF-539 CNS. Moreover, the TGI in the assay with SK-MEL-28 melanoma is 29.2 µM; in the assay on A498 renal it was 10.3 µM; in the assay on U251 CNS, 22.5 µM; in the assay with ACHN renal, 22.6 µM.
With `Clc1ccc(/C=C/c2nc(Cl)c(-c3ccc(Cl)cc3)c(Cl)n2)cc1`, the TGI in the assay on HCT-116 colon, in the assay with 786-0 renal, in the assay on SK-MEL-5 melanoma, in the assay with PC-3 prostate, with RPMI-8226 leukemia and with SF-539 CNS was > 100 µM throughout. For the same compound, the TGI in the assay with SK-MEL-28 melanoma, in the assay on A498 renal, in the assay with U251 CNS and in the assay on ACHN renal was > 100 µM throughout.
With `O=C1NC(SCc2ccc(F)cc2)=N/C1=C/c1cccc(OCc2ccc(Cl)cc2)c1`, the GI50 in the assay on HCT-116 colon was 3.27 µM; with 786-0 renal it was 2.88 µM; in the assay on SK-MEL-5 melanoma, > 100 µM; with PC-3 prostate, > 100 µM; in the assay with RPMI-8226 leukemia, > 100 µM; in the assay on SF-539 CNS, 4.87 µM. Moreover, the GI50 was > 100 µM in the assay with SK-MEL-28 melanoma, 3.53 µM in the assay on A498 renal, 3.83 µM with U251 CNS and 1.93 µM in the assay on ACHN renal. The TGI in the assay on HCT-116 colon was 14.9 µM; with 786-0 renal, 8.8 µM; in the assay with SK-MEL-5 melanoma, > 100 µM; with PC-3 prostate it was > 100 µM; in the assay on RPMI-8226 leukemia, > 100 µM; with SF-539 CNS it was 72.2 µM. Further, the TGI in the assay with SK-MEL-28 melanoma was > 100 µM; in the assay with A498 renal, 26.2 µM; in the assay on U251 CNS, 19.6 µM; with ACHN renal, 3.87 µM.
For `Cc1cn(Cc2ccccc2CCl)c(=O)n(Cc2ccccc2CCl)c1=O`, the GI50 with HCT-116 colon is 1.55 µM; with 786-0 renal, 1.67 µM; in the assay on SK-MEL-5 melanoma it was 1.56 µM; in the assay on PC-3 prostate, 1.83 µM; with RPMI-8226 leukemia it was 1.93 µM; in the assay with SF-539 CNS it was 2.47 µM. Moreover, the GI50 was 2.21 µM in the assay on SK-MEL-28 melanoma, 10.6 µM with A498 renal, 1.57 µM in the assay on U251 CNS and 1.66 µM in the assay with ACHN renal. In addition, the TGI in the assay on HCT-116 colon turned out to be 3.18 µM; with 786-0 renal, 3.39 µM; in the assay with SK-MEL-5 melanoma, 2.93 µM; in the assay on PC-3 prostate it was 3.91 µM; in the assay with RPMI-8226 leukemia, 6.36 µM; with SF-539 CNS, 5.65 µM. Also, the TGI with SK-MEL-28 melanoma turned out to be 5.49 µM; in the assay on A498 renal, 27.4 µM; in the assay on U251 CNS it was 3.1 µM; in the assay on ACHN renal, 3.06 µM.
In the case of `COc1cc(NC(=O)c2cc(O)c(C/C=C(\C)CCC=C(C)C)c(O)c2)cc2c1O[C@]1(C)CC[C@@H](O)C(C)(C)[C@H]1C2`, the GI50 was 2.07 µM with HCT-116 colon; 0.604 µM with 786-0 renal; 1.34 µM in the assay on SK-MEL-5 melanoma; 0.849 µM with PC-3 prostate; 0.262 µM with RPMI-8226 leukemia; 0.348 µM with SF-539 CNS. Also, the GI50 in the assay with SK-MEL-28 melanoma was 1.43 µM; in the assay on A498 renal it was 0.963 µM; in the assay with U251 CNS it was 0.724 µM; in the assay with ACHN renal, 2.21 µM. In addition, the TGI is 12.3 µM in the assay on HCT-116 colon; 6.44 µM in the assay with 786-0 renal; 2.9 µM in the assay on SK-MEL-5 melanoma; 7.16 µM in the assay with PC-3 prostate; 1.32 µM in the assay on RPMI-8226 leukemia; 2.38 µM with SF-539 CNS. Further, the TGI in the assay on SK-MEL-28 melanoma stood at 8.25 µM; in the assay on A498 renal it was 7.9 µM; in the assay with U251 CNS, 5.33 µM; with ACHN renal, 10.1 µM.
Take `CC1=NN(c2ccccc2)C(=O)C1N=Nc1ccc(S(N)(=O)=O)cc1` (stereo not given): the TGI in the assay on HCT-116 colon, with 786-0 renal, in the assay on SK-MEL-5 melanoma, with PC-3 prostate, with RPMI-8226 leukemia and in the assay on SF-539 CNS was > 100 µM each time. The TGI in the assay with SK-MEL-28 melanoma, with A498 renal, in the assay with U251 CNS and with ACHN renal was > 100 µM each time.
In the case of `C=C(C)C(=O)O[C@H]1CC2=CC(CC(C)=C[C@H]3OC(=O)C(=C)C13)OC2=O` (stereo not given in full), the TGI with HCT-116 colon was 24.2 µM; in the assay on 786-0 renal, 24.4 µM; in the assay with SK-MEL-5 melanoma, > 100 µM; in the assay on PC-3 prostate, 53.5 µM; in the assay on RPMI-8226 leukemia it was 9.21 µM; in the assay on SF-539 CNS it was > 100 µM. For the same compound, the TGI in the assay with SK-MEL-28 melanoma was 31.2 µM; in the assay on A498 renal it was 76 µM; in the assay with U251 CNS it was > 100 µM; in the assay with ACHN renal it was 27.6 µM.
Consider `COC1OC(C(C)O)C2OC(C)(C)OC12` (stereo not given), for which the TGI in the assay with HCT-116 colon, with 786-0 renal, in the assay with SK-MEL-5 melanoma, in the assay on PC-3 prostate, in the assay on RPMI-8226 leukemia and with SF-539 CNS was > 100 µM throughout. Besides, the TGI with SK-MEL-28 melanoma, with A498 renal, in the assay with U251 CNS and in the assay with ACHN renal was > 100 µM each time.
Regarding `Cc1ccc(-c2c3c(N)c4c(nc3nc3c2c(C)nn3-c2ccccc2)CCC4)cc1`, the GI50 in the assay with HCT-116 colon was 1.57 µM; in the assay with 786-0 renal, 1.87 µM; in the assay on SK-MEL-5 melanoma, 1.73 µM; in the assay on PC-3 prostate, 5.07 µM; in the assay on RPMI-8226 leukemia it was 2.23 µM; with SF-539 CNS it was 1.86 µM. The GI50 in the assay on SK-MEL-28 melanoma was 4.44 µM; with A498 renal it was 16.1 µM; in the assay with U251 CNS it was 1.95 µM; in the assay with ACHN renal it was 3.16 µM. The TGI in the assay on HCT-116 colon stood at 3.41 µM; in the assay with 786-0 renal, 3.65 µM; with SK-MEL-5 melanoma, 3.31 µM; in the assay with PC-3 prostate, 20.9 µM; with RPMI-8226 leukemia it was 5.53 µM; with SF-539 CNS, 3.46 µM. The TGI with SK-MEL-28 melanoma was determined as 9.69 µM; in the assay with A498 renal, 32.6 µM; in the assay on U251 CNS, 4.01 µM; in the assay with ACHN renal, 8.38 µM.
For the compound `CCCCN(CCCC)CCC(O)c1cc2ccc(C(F)(F)F)cc2c2cc(C(F)(F)F)ccc12` (stereo not given), the GI50 with HCT-116 colon is 1.59 µM; in the assay on 786-0 renal it was 1.55 µM; in the assay with SK-MEL-5 melanoma it was 1.76 µM; with PC-3 prostate, 2.52 µM; in the assay on RPMI-8226 leukemia, 2.28 µM; in the assay with SF-539 CNS, 2.04 µM. Also, the GI50 was 2.21 µM with SK-MEL-28 melanoma, 2.02 µM in the assay on A498 renal, 1.79 µM with U251 CNS and 2.94 µM in the assay on ACHN renal. Besides, the TGI in the assay on HCT-116 colon stood at 3.04 µM; with 786-0 renal it was 3.2 µM; in the assay with SK-MEL-5 melanoma it was 3.15 µM; in the assay on PC-3 prostate, 9.67 µM; with RPMI-8226 leukemia, 6.17 µM; with SF-539 CNS it was 5.44 µM. Also, the TGI in the assay with SK-MEL-28 melanoma is 4.23 µM; in the assay on A498 renal, 5.86 µM; in the assay on U251 CNS, 3.75 µM; in the assay with ACHN renal, 12.6 µM.
Consider `CN(C)CC1=Nc2cccc3cccc(c23)N1`, for which the TGI in the assay on HCT-116 colon was 30.8 µM; with 786-0 renal it was 25.8 µM; with SK-MEL-5 melanoma it was 28.7 µM; in the assay on PC-3 prostate, 32.3 µM; with RPMI-8226 leukemia it was 55.8 µM; in the assay with SF-539 CNS, 35.9 µM. Further, the TGI with SK-MEL-28 melanoma turned out to be 49.1 µM; in the assay on A498 renal, 28.2 µM; in the assay with U251 CNS, 32.5 µM; in the assay with ACHN renal it was 28.2 µM.
Take `O=C1OC(OC/C(Br)=C(/Br)COC2OC(=O)C(Cl)=C2Cl)C(Cl)=C1Cl` (stereo not given): the TGI in the assay with HCT-116 colon turned out to be 10 µM; in the assay with 786-0 renal, 14.1 µM; in the assay on SK-MEL-5 melanoma it was 26.8 µM; with PC-3 prostate, 30.2 µM; in the assay on RPMI-8226 leukemia, 5.19 µM; in the assay with SF-539 CNS, 36.7 µM. Besides, the TGI in the assay with SK-MEL-28 melanoma stood at 23.3 µM; in the assay on A498 renal, 38 µM; in the assay on U251 CNS it was 24.2 µM; with ACHN renal, 24.8 µM.
As to `CN(CCCN(C)CCC1CCCCC1)CCC1CCCCC1`, the GI50 in the assay on HCT-116 colon is 2.52 µM; in the assay with 786-0 renal, 3.46 µM; in the assay on SK-MEL-5 melanoma it was 1.32 µM; in the assay with PC-3 prostate it was 2.62 µM; in the assay on RPMI-8226 leukemia it was 1.47 µM; with SF-539 CNS, 1.7 µM. Further, the GI50 in the assay on SK-MEL-28 melanoma was 1.91 µM; with A498 renal, 5.14 µM; in the assay on U251 CNS, 1.97 µM; in the assay on ACHN renal it was 4 µM. Moreover, the TGI in the assay on HCT-116 colon is 7.45 µM; in the assay on 786-0 renal, 13.7 µM; in the assay on SK-MEL-5 melanoma it was 2.61 µM; with PC-3 prostate, 15.4 µM; in the assay with RPMI-8226 leukemia it was 5.09 µM; in the assay on SF-539 CNS, 3.53 µM. Also, the TGI with SK-MEL-28 melanoma stood at 3.41 µM; in the assay with A498 renal it was 13.8 µM; in the assay on U251 CNS, 7.48 µM; in the assay on ACHN renal it was 14.9 µM.
